This note sets out measurements from patent US8546434B2, “Triazole compounds as KSP inhibitors” (Novartis AG, priority 2010, dated 2013).

Each structure is given as a SMILES string.

motor domain of human KSP (Eg 5, KNSL1), sequence (P52732 18-359): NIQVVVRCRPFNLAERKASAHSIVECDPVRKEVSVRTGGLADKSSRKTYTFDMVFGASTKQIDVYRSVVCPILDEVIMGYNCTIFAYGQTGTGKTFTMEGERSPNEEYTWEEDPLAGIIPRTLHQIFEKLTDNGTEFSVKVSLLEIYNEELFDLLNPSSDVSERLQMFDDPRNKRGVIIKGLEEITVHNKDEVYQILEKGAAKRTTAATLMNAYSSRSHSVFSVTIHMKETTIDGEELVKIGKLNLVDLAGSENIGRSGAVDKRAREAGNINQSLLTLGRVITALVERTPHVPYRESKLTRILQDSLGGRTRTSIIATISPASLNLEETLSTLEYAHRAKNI

The first experiment addresses motor domain of human KSP (Eg 5, KNSL1) (Homo sapiens (Human), UniProt P52732). The experiment in a line: Assay for determining KSP activity (microtubule-stimulated ATPase, Biomol Green phosphate detection). It is filed as biochemical. The conditions noted are these: KSP motor domain 3 nM, bovine brain microtubules 50 μg/mL, 2 hours at RT, absorbance at 650 nm; read-out: Biological Activity (IC50). The protocol:
This example provides a representative in vitro assay for determining KSP activity in vitro. Purified microtubules obtained from bovine brain were purchased from Cytoskeleton Inc. (Denver, Colo., USA). The motor domain of human KSP (Eg 5, KNSL1) was cloned, expressed, and purified to greater than 95% homogeneity. Biomol Green was purchased from BIOMOL International L.P. (Plymouth Meeting, Pa., USA). The microtubules were rapidly thawed at 37° C. for 10 minutes before making dilution. Microtubules and KSP motor protein (i.e., the KSP motor domain) were diluted in assay buffer (20 mM Tris-HCl (pH 7.5), 1 mM MgCl2, 10 mM DTT and 0.125% BSA) to a final concentration of 50 μg/mL microtubules and 3 nM KSP.
To each well of the testing plate (96-well half area plate) containing 1.25 μL of inhibitor or test compound in DMSO (or DMSO only in the case of controls) were added 25 μL of ATP solution (ATP diluted to a concentration of 250 μM in assay buffer) and 25 μL of the above-described microtubule/KSP solution. The plates were incubated at RT for 2 hours. Following incubation, 65 μL of Biomol Green (a malachite green-based dye that detects the release of inorganic phosphate) with 0.015% Tween 20 was added to each well. The plates were incubated for an additional 15-20 minutes then the absorbance at 650 nm was determined using a Molecular Devices Spectrophotometer. The amount of absorbance at 650 nm corresponded to the amount of KSP activity in the samples. The IC50 of each inhibitor or test compound was then determined based on the decrease in absorbance at 650 nm at each concentration, via nonlinear regression using either XLFit for Excel or Prism data analysis software by GraphPad Software Inc.
For `CC(C)(C)[C@H](c1nc(-c2cc(F)ccc2F)nn1Cc1ccccc1)N(CC1CNC[C@@H]1F)C(=O)C1CCCO1` (stereo in doubt) [Compound 1, (S)—N—((R)-1-(1-benzyl-3-(2,5-difluorophenyl)-1H-1,2,4-triazol-5-yl)-2,2-dimethylpropyl)-N-(((3R,4R)-4-fluoropyrrolidin-3-yl)methyl)tetrahydrofuran-2-carboxamide], the IC50 was determined as 0.96 nM. Same read-out and setting: the figure for `C[C@@H]1CN(C(=O)N(C[C@@H]2CNC[C@@H]2F)[C@@H](c2nc(-c3cc(F)ccc3F)nn2Cc2ccccc2)C(C)(C)C)C[C@H](C)O1` (stereo in doubt) [Compound 2, N—((R)-1-(1-benzyl-3-(2,5-difluorophenyl)-1H-1,2,4-triazol-5-yl)-2,2-dimethylpropyl)-N-(((3R,4R)-4-fluoropyrrolidin-3-yl)methyl)-2,6-dimethylmorpholine-4-carboxamide] is 0.83 nM; for `C[C@@H]1CN(C(=O)N(C[C@@H]2CNC[C@@H]2F)[C@@H](c2nc(-c3cc(F)ccc3F)nn2Cc2cccc(F)c2)C(C)(C)C)C[C@H](C)O1` (stereo in doubt) [Compound 3, N—((R)-1-(3-(2,5-difluorophenyl)-1-(3-fluorobenzyl)-1H-1,2,4-triazol-5-yl)-2,2-dimethylpropyl)-N-(((3R,4R)-4-fluoropyrrolidin-3-yl)methyl)-2,6-dimethylmorpholine-4-carboxamide] it is 0.74 nM; for `C[C@H](O)C(=O)N(CC1CNC[C@@H]1F)[C@@H](c1nc(-c2cc(F)ccc2F)nn1Cc1ccccc1)C(C)(C)C` (stereo in doubt) [Compound 4, (S)—N—((R)-1-(1-benzyl-3-(2,5-difluorophenyl)-1H-1,2,4-triazol-5-yl)-2,2-dimethylpropyl)-N-(((3R,4R)-4-fluoropyrrolidin-3-yl)methyl)-2-hydroxypropanamide] it is 0.6 nM.

As to `CC(C)(C)C(c1nc(-c2cc(F)ccc2F)nn1Cc1cccc(F)c1)N(CC1CNC[C@@H]1F)C(=O)C1CCCO1` (stereo in doubt) [Compound 5, (S)—N—((R)-1-(3-(2,5-difluorophenyl)-1-(3-fluorobenzyl)-1H-1,2,4-triazol-5-yl)-2,2-dimethylpropyl)-N-(((3R,4R)-4-fluoropyrrolidin-3-yl)methyl)tetrahydrofuran-2-carboxamide], the IC50 came out at 1.46 nM. For `C[C@H](O)C(=O)N(CC1CNC[C@@H]1F)[C@@H](c1nc(-c2cc(F)ccc2F)nn1Cc1cccc(F)c1)C(C)(C)C` (stereo in doubt) [Compound 6, (S)—N—((R)-1-(3-(2,5-difluorophenyl)-1-(3-fluorobenzyl)-1H-1,2,4-triazol-5-yl)-2,2-dimethylpropyl)-N-(((3R,4R)-4-fluoropyrrolidin-3-yl)methyl)-2-hydroxypropanamide], the IC50 was determined as 0.83 nM.

Staying with this experiment, now noted: KSP motor domain 3 nM, bovine brain microtubules 50 μg/mL, 2 hours at RT, absorbance at 650 nm; read-out: KSP IC50.
`COC(C)(C)[C@H](c1nc(-c2cc(F)ccc2F)nn1Cc1cccc(F)c1)N(CC[C@H](N)CF)C(=O)[C@@H]1CCCO1` [Compound 7]: the half-maximal inhibitory concentration (IC50) was 1.23 nM. Still for that read-out and setting: the figure for `COC(C)(C)[C@H](c1nc(-c2cc(F)ccc2F)nn1Cc1cccc(F)c1)N(CC[C@H](N)CF)C(=O)[C@H](C)O` [Compound 8] is 1.49 nM; for `CCN1C[C@@H](CN(C(=O)[C@@H]2CCCO2)[C@@H](c2nc(-c3cc(F)ccc3F)nn2Cc2cccc(F)c2)C(C)(C)OC)[C@@H](F)C1` [Compound 9] it is 49.4 nM; for `COC(C)(C)[C@H](c1nc(-c2cc(F)ccc2F)nn1Cc1cccc(F)c1)N(C[C@@H]1CNC[C@@H]1F)C(=O)[C@@H]1CCCO1` [Compound 10] it is 0.9 nM. Still for that read-out and setting: the same measure for `COC(C)(C)[C@H](c1nc(-c2cc(F)ccc2F)nn1Cc1ccccc1)N(CC[C@H](N)CF)C(=O)[C@@H]1CCCO1` [Compound 11]: 1.4 nM; for `COC(C)(C)[C@H](c1nc(-c2cc(F)ccc2F)nn1Cc1cccc(F)c1)N(C[C@@H]1CNC[C@@H]1F)C(=O)[C@H](C)O` [Compound 12]: 0.87 nM; for `COC(C)(C)[C@H](c1nc(-c2cc(F)ccc2F)nn1Cc1ccccc1)N(C[C@@H]1CNC[C@@H]1F)C(=O)[C@@H]1CCCO1` [Compound 13]: 0.69 nM. The same measure, in the same setting: the same measure for `COC(C)(C)[C@H](c1nc(-c2cc(F)ccc2F)nn1Cc1ccccc1)N(CC[C@H](N)CF)C(=O)[C@H](C)O` [Compound 14]: 2.34 nM.

In general, IC50 refers to the concentration that inhibits the measured activity by half.
